Data as given in PMC5854716, “Synthesis, molecular docking, ctDNA interaction, DFT calculation and evaluation of antiproliferative and anti-Toxoplasma gondii activities of 2,4-diaminotriazine-thiazole derivatives” (Medicinal Chemistry Research, 2018).

Key:
[1] = test system: normal mouse fibroblast Balb/3T3 cells; test: In vitro cytotoxicity (SRB), Balb/3T3; format: cell-based; conditions: mean ± SD; for IC50: Mus musculus, BALB/3T3, 72 h exposure; for IC50 Balb/3T3: 72 h exposure
Experimental: Biphenotypic B myelomonocytic leukemia MV4-11, human lung carcinoma A549, human breast carcinoma MCF-7, and normal mouse fibroblast BALB/3T3 cells were obtained from American Type Culture Collection (Rockville, Maryland, USA). All the cell lines are being maintained at the Institute of Immunology and Experimental Therapy, Wroclaw, Poland. MV4-11 cells were cultured in RPMI 1640 medium (Gibco, UK) with 2 mM L-glutamine adjusted to contain 1.0 mM sodium pyruvate, and 10% fetal bovine serum (FBS) (all from Sigma-Aldrich, Germany). A549 cells were cultured in RPMI 1640+ Opti-MEM (1:1) (both from Gibco, UK), MCF-7 cells in Eagle medium (IIET, Wroclaw, Poland), BALB/3T3 in Dulbecco medium (IIET, Poland) supplemented with 2 mM L-glutamine and 1.0 mM sodium pyruvate, 10% fetal bovine serum (all from Sigma-Aldrich, Germany). The MCF-7 cell culture was supplemented with 0.8 mg/l of insulin (Sigma-Aldrich, Germany). All culture media were supplemented with 100 units/ml penicillin, and 100 µg/ml streptomycin (both from Polfa Tarchomin S.A., Poland). All cell lines were grown at 37 °C with 5% CO2 humidified atmosphere (Łączkowski et al. [2014], [2016a]). Prior to usage, the compounds were dissolved in DMSO and culture medium (1: 9) to the concentration of 1 mg/ml, and subsequently diluted in culture medium to reach the required concentrations (0.1, 1, 10, and 100 µg/ml) (Łączkowski et al. [2014], [2016a]). Twenty-four hours prior to the addition of the tested compounds, the cells counted using Burker hemocytometer were plated in 96-well plates (Sarstedt, Germany) at a density of 1 × 10^4 cells per well. The assay was performed after 72 h of exposure to varying concentrations of the tested agents. The in vitro cytotoxic effect of all agents was examined using the SRB assay for adherent cells (A549, MCF-7, and BALB/3T3) or MTT assay for leukemia cells (MV4-11) as described previously. […] Each compound in each concentration was tested in triplicate in a single experiment, which was repeated 3–7 times (Rubinstein et al. [1990]; Bramson et al. [1995]). Cells were attached to the bottom of plastic wells by fixing them with cold 50% TCA (trichloroacetic acid, POCH, Gliwice, Poland) on top of the culture medium in each well. The plates were incubated at 4 °C for 1 h and then washed five times with tap water. The cellular material fixed with TCA was stained with 0.1% sulforhodamine B (SRB, Sigma-Aldrich, Germany) and dissolved in 1% acetic acid (POCH, Gliwice, Poland) for 30 min. Unbound dye was removed by rinsing (4×) in 1% acetic acid. The protein-bound dye was extracted with 10 mM unbuffered Tris base (Sigma-Aldrich, Germany) for determination of the optical density (λ = 540 nm) in a computer-interfaced, 96-well Synergy H4 (BioTek Instruments USA) photometer microtiter plate reader (Sidoryk et al. [2012]).

VERO cells = test: Cell viability assay (MTT), VERO; format: cell-based, Cercopithecus aethiops; conditions: 24 h; for CC30 VERO: concentration for 30% proliferation inhibition
Experimental: The epithelial cell line VERO (ATCC-Catalog No. CCL-81^TM), derived from the kidney of the African green monkey, Cercopithecus aethiops and fibroblast cell line L-929 (ATCC-Catalog No. CCL-1^TM), derived from Mus musculus (http://www.atcc.org) were grown in Iscoves’s Modified Dulbecco’s Medium (IMDM) supplemented with 10% (v/v) fetal bovine serum (FBS), plus 2 mM L-glutamine, 100 U/ml penicillin, 100.00 µg/ml streptomycin, 5 × 10^−5 M 2-mercaptoethanol and maintained at 37 °C in a 10% CO2 atmosphere. Subcultures were performed via enzymatic cell dissociation in 0.25% trypsin. After dissociation, the cells were placed in culture medium at 4 °C with 10% FBS to inhibit the action of trypsin. The isolated cells were centrifuged for 10 min at 1000×g at 4 °C, and the cells were grown in new bottles. This procedure was repeated when cells reached a confluence of ~90%. All commercial reactants and solvents were purchased from either Sigma-Aldrich Laborchemikalien GmbH (Dzitko et al. [2014]).
Suspensions of the compounds 4a–l were freshly prepared (5 mg/ml DMSO) before the cells were exposed, and diluted to appropriate concentrations; 0.9, 1.8, 3.9, 7.8, 15.6, 31.2, 62.5, and 125.00 μg/ml with the culture medium. Cells treated with 2.5% DMSO-solvent served as a control in each experiment.
The effects of tested compounds on the viability of mouse fibroblasts L929 and […] VERO cells were evaluated using the MTT assay. The MTT assay was used according to international standards: ISO 10993-5:2009 (Tests for in vitro cytotoxicity; http://www.iso.org/iso/catalogue_detail.htm? csnumber = 36406). L929 and VERO cells were plated into 96-well plates at a density of 1.0 × 10^4/100 μl/well in culture medium and allowed to attach for 24 h before treatment. Afterwards, culture medium in the plates was replaced by 100 μl compounds suspension at concentration of 0–125 μg/ml and the cells were exposed for 24 h. Then 1 mg/ml MTT (50 μl/well) was added to each well and incubated at 37 °C, 10 % CO2 for 2 h. Mitochondrial dehydrogenases of viable cells reduce the yellowish water-soluble MTT to water-insoluble formazan crystals, which were solubilized with dimethyl sulfoxide (DMSO). The cell culture medium was aspirated cautiously, after which 150 μl DMSO was added to each well and mixed thoroughly. Optical density (OD) was read on the ELISA reader (Multiskan EX, Labsystems; http://www.mtxlsi.com/multiskan_EX.htm) at 550 nm. The results were expressed as percentage viability compared with the treated 2.5% DMSO controls. All experiments were performed in triplicate.

## C/C(=N\Nc1nc(-c2ccc(F)cc2)cs1)c1ccc(Nc2nc(N)nc(N)n2)cc1 [Compound 4a, (E)-N^2-(4-(1-(2-(4-(4-fluorophenyl)-1,3-thiazol-2-yl)hydrazinylidene)ethyl)phenyl)-1,3,5-triazine-2,4,6-triamine]
[1]
  IC50: 62.6 ± 8.69 µg/mL
VERO cells
  CC30 VERO: >125.0 µg/mL

## C/C(=N\Nc1nc(-c2ccc(Cl)cc2)cs1)c1ccc(Nc2nc(N)nc(N)n2)cc1 [Compound 4b, (E)-N^2-(4-(1-(2-(4-(4-chlorophenyl)-1,3-thiazol-2-yl)hydrazinylidene)ethyl)phenyl)-1,3,5-triazine-2,4,6-triamine]
[1]
  IC50: > 100 µg/mL
VERO cells
  CC30 VERO: >125.0 µg/mL

## C/C(=N\Nc1nc(-c2ccc(C)cc2)cs1)c1ccc(Nc2nc(N)nc(N)n2)cc1 [Compound 4c, (E)-N^2-(4-(1-(2-(4-(4-tolyl)-1,3-thiazol-2-yl)hydrazinylidene)ethyl)phenyl)-1,3,5-triazine-2,4,6-triamine]
[1]
  IC50: > 100 µg/mL
VERO cells
  CC30 VERO: >125.0 µg/mL

## C/C(=N\Nc1nc(-c2ccc(Br)cc2)cs1)c1ccc(Nc2nc(N)nc(N)n2)cc1 [Compound 4d, (E)-N^2-(4-(1-(2-(4-(4-bromophenyl)-1,3-thiazol-2-yl)hydrazinylidene)ethyl)phenyl)-1,3,5-triazine-2,4,6-triamine]
[1]
  IC50: 65.2 ± 24.5 µg/mL
VERO cells
  CC30 VERO: >125.0 µg/mL

## C/C(=N\Nc1nc(-c2ccc(I)cc2)cs1)c1ccc(Nc2nc(N)nc(N)n2)cc1 [Compound 4e, (E)-N^2-(4-(1-(2-(4-(4-iodophenyl)-1,3-thiazol-2-yl)hydrazinylidene)ethyl)phenyl)-1,3,5-triazine-2,4,6-triamine]
[1]
  IC50: > 100 µg/mL
VERO cells
  CC30 VERO: >125.0 µg/mL

## C/C(=N\Nc1nc(-c2cc3ccccc3oc2=O)cs1)c1ccc(Nc2nc(N)nc(N)n2)cc1 [Compound 4f, (E)-3-(2-(2-(1-(4-(4,6-diamino-1,3,5-triazin-2-yloamino)phenyl)ethylidene)hydrazinyl)thiazol-4-yl)-2H-chromen-2-on]
[1]
  IC50 Balb/3T3: >100 µg/mL
VERO cells; 0.9 µg/ml
  Viability VERO: 97.81%
VERO cells; 1.8 µg/ml
  Viability VERO: 100.84%
VERO cells; 3.9 µg/ml
  Viability VERO: 104.30%
VERO cells; 7.8 µg/ml
  Viability VERO: 104.39%
VERO cells; 15.6 µg/ml
  Viability VERO: 108.19%
VERO cells; 31.2 µg/ml
  Viability VERO: 117.52%
VERO cells; 62.5 µg/ml
  Viability VERO: 103.77%
VERO cells; 125.0 µg/ml
  Viability VERO: 111.27%
VERO cells
  CC30 VERO: >125.0 µg/mL

## CC(=O)Nc1ccc(-c2csc(N/N=C(\C)c3ccc(Nc4nc(N)nc(N)n4)cc3)n2)cc1 [Compound 4g, (E)-N^2-(4-(2-(2-(1-(4-(4,6-diamino-1,3,5-triazin-2-yloamino)phenyl)ethylidene)hydraziny)thiazol-4-yl)phenyl)-acetamide]
[1]
  IC50 Balb/3T3: >100 µg/mL
VERO cells; 0.9 µg/ml
  Viability VERO: 93.72%
VERO cells; 1.8 µg/ml
  Viability VERO: 90.59%
VERO cells; 3.9 µg/ml
  Viability VERO: 95.35%
VERO cells; 7.8 µg/ml
  Viability VERO: 98.14%
VERO cells; 15.6 µg/ml
  Viability VERO: 98.43%
VERO cells; 31.2 µg/ml
  Viability VERO: 98.96%
VERO cells; 62.5 µg/ml
  Viability VERO: 94.25%
VERO cells; 125.0 µg/ml
  Viability VERO: 91.41%
VERO cells
  CC30 VERO: >125.0 µg/mL

## C/C(=N\Nc1nc(-c2ccc([N+](=O)[O-])cc2)cs1)c1ccc(Nc2nc(N)nc(N)n2)cc1 [Compound 4h, (E)-N^2-(4-(1-(2-(4-(4-nitrophenyl)-1,3-thiazol-2-yl)hydrazinylidene)ethyl)phenyl)-1,3,5-triazine-2,4,6-triamine]
[1]
  IC50: > 100 µg/mL
VERO cells
  CC30 VERO: >125.0 µg/mL

## C/C(=N\Nc1nc(-c2ccc(Cl)c(Cl)c2)cs1)c1ccc(Nc2nc(N)nc(N)n2)cc1 [Compound 4i, (E)-N^2-(4-(1-(2-(4-(3,4-dichlorophenyl)-1,3-thiazol-2-yl)hydrazinylidene)ethyl)phenyl)-1,3,5-triazine-2,4,6-triamine]
[1]
  IC50: > 100 µg/mL
VERO cells
  CC30 VERO: >62.5 µg/mL

## C/C(=N\Nc1nc(-c2ccc(NS(C)(=O)=O)cc2)cs1)c1ccc(Nc2nc(N)nc(N)n2)cc1 [Compound 4j, (E)-N-(4-(2-(2-(1-(4-(4,6-diamino-1,3,5-triazin-2-yloamino)phenyl)ethylidene)hydrazinyl)thiazol-4-yl)phenyl)-methanesulfonamide]
[1]
  IC50 Balb/3T3: >100 µg/mL
VERO cells; 0.9 µg/ml
  Viability VERO: 79.82%
VERO cells; 1.8 µg/ml
  Viability VERO: 93.81%
VERO cells; 3.9 µg/ml
  Viability VERO: 93.62%
VERO cells; 7.8 µg/ml
  Viability VERO: 89.25%
VERO cells; 15.6 µg/ml
  Viability VERO: 90.98%
VERO cells; 31.2 µg/ml
  Viability VERO: 96.22%
VERO cells; 62.5 µg/ml
  Viability VERO: 97.76%
VERO cells; 125.0 µg/ml
  Viability VERO: 89.44%
VERO cells
  CC30 VERO: >125.0 µg/mL

## C/C(=N\Nc1nc(-c2ccccc2)cs1)c1ccc(Nc2nc(N)nc(N)n2)cc1 [Compound 4k, (E)-N^2-(4-(1-(2-(4-phenyl-1,3-thiazol-2-yl)hydrazinylidene)ethyl)phenyl)-1,3,5-triazine-2,4,6-triamine]
[1]
  IC50: > 100 µg/mL
VERO cells
  CC30 VERO: >125.0 µg/mL

## C/C(=N\Nc1nc(-c2ccc3[nH]c(=O)oc3c2)cs1)c1ccc(Nc2nc(N)nc(N)n2)cc1 [Compound 4l, (E)-6-(2-(2-(1-(4-(4,6-diamino-1,3,5-triazin-2-yloamino)phenyl)ethylidene)hydrazinyl)thiazol-4-yl)-benzo[d]oxazol-2(3H)-on]
[1]
  IC50 Balb/3T3: >100 µg/mL
VERO cells; 0.9 µg/ml
  Viability VERO: 97.13%
VERO cells; 1.8 µg/ml
  Viability VERO: 87.85%
VERO cells; 3.9 µg/ml
  Viability VERO: 95.16%
VERO cells; 7.8 µg/ml
  Viability VERO: 91.03%
VERO cells; 15.6 µg/ml
  Viability VERO: 96.08%
VERO cells; 31.2 µg/ml
  Viability VERO: 95.40%
VERO cells; 62.5 µg/ml
  Viability VERO: 97.33%
VERO cells
  CC30 VERO: >62.5 µg/mL
